Test results taken from patent US20210292410A1, “TREATMENT PARADIGM FOR AN ANTI-CD19 ANTIBODY AND VENETOCLAX COMBINATION TREATMENT” (MorphoSys AG, priority 2017, published 2021).

What was measured:
[1] = system: CYP17; assay: Endocrine panel (progesterone) in ER+ breast cancer patients; type: in vivo, human; settings: vs. patients treated with abiraterone and prednisone (Abi/Pred), FIG. 20
Protocol: (§1) Subjects that fulfill the Inclusion Criteria captured in Table 4 were administered seviteronel (600 mg for male subjects, 4×150 mg tablets; 450 mg for female subjects, 3×150 mg tablets) once daily until any of the criteria in Table 2 are met. Table 5 captures the clinical screening data and screening schedule for the various screens for each of the male subjects.
as §1, with “tablets) and dexamethasone (0.5 mg)” for “tablets)”
(§2) Blood samples were collected for evaluation of steroid hormone changes as a pharmacodynamics indicator of CYP17 inhibition over time (e.g., DHEA, DHEA-S, androstenedione, testosterone, cortisol, corticosterone, progesterone, pregnenolone, estradiol, estrone and ACTH).

[2] = system: CYP17; assay: Endocrine panel in prostate cancer patients treated with seviteronel or seviteronel and dexamethasone; type: in vivo, human; settings: seviteronel 600 mg once daily, FIG. 7
Protocol: (§3) Males that fulfill the Inclusion Criteria captured in Table 1 were administered seviteronel (600 mg; 4×150 mg tablets) once daily until any of the criteria in Table 2 are met. Table 3 captures the clinical screening data and screening schedule for the various screens for each of the male subjects.
as §3, with “tablets) and dexamethasone (0.5 mg)” for “tablets)”
as §2

CC(C)[C@](O)(c1ccc2cc(OC(F)F)c(OC(F)F)cc2c1)c1c[nH]nn1 [SEVI] was tested, and the increase in progesterone [1] was “lack of clinically relevant increases in progesterone”, the “endocrine profile: "up-stream" steroids” value [2] was “limited increase” and the “endocrine profile: ACTH” value [2] was “modest ACTH increase”. For the same compound, the “endocrine profile: androgen” value [2] was “modest androgen decline” and the “endocrine profile: cortisol” value [2] was “modest cortisol decrease”.
